Results as given in the supplement of paper PMC10307832.

How the values were obtained:
Experiment in all cases: relative viability (nuclei count vs DMSO), 5 days (fraction); higher = more cells survive
NCI-H1944 = tested on: NCI-H1944
Outline: (§1)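 The day after seeding in 1536-well plates, lung cancer cell lines were treated by pin tool with a single drug, or with a fixed anchor-drug dose together with five library-drug doses (not always all listed) in √10 steps. After 5 days, a combined fix-and-stain solution (final 0.05% Triton X-100, 1% formaldehyde, 1 ug/ml Hoechst) was added. Nuclei counted on 4× images gave relative viability as treated counts over vehicle counts, reported as the median of duplicate plates.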

HOP-62 = tested on: HOP-62
Outline: as §1

A-427 = tested on: A-427
Outline: as §1

PC-3 [JPC-3] = tested on: PC-3 [JPC-3]
Outline: as §1

SK-MES-1 = tested on: SK-MES-1
Outline: as §1

NCI-H3122 = tested on: NCI-H3122
Outline: as §1

NCI-H596 = tested on: NCI-H596
Outline: as §1

NCI-H1993 = tested on: NCI-H1993
Outline: as §1

NCI-H2009 = tested on: NCI-H2009
Outline: as §1

NCI-H2170 = tested on: NCI-H2170
Outline: as §1

NCI-H322M = tested on: NCI-H322M
Outline: as §1

LXF-289 = tested on: LXF-289
Outline: as §1

ABC-1 = tested on: ABC-1
Outline: as §1

LK-2 = tested on: LK-2
Outline: as §1

HARA = tested on: HARA
Outline: as §1

NCI-H2228 = tested on: NCI-H2228
Outline: as §1

NCI-H1792 = tested on: NCI-H1792
Outline: as §1

EMC-BAC-2 = tested on: EMC-BAC-2
Outline: as §1

SW 1573 = tested on: SW 1573
Outline: as §1

NCI-H727 = tested on: NCI-H727
Outline: as §1

## Nc1ccn([C@@H]2O[C@H](CO)[C@@H](O)[C@@H]2O)c(=O)n1 [Cytarabine] + C[C@@H](Oc1cc(-c2cnn(C3CCNCC3)c2)cnc1N)c1c(Cl)ccc(F)c1Cl [Crizotinib] (partner 1 µM)
NCI-H1944; first compound 0.005 µM
  relative viability: 0.9
NCI-H1944; first compound 0.01581 µM
  relative viability: 0.466
NCI-H1944; first compound 0.05 µM
  relative viability: 0.367
NCI-H1944; first compound 0.1581 µM
  relative viability: 0.2
NCI-H1944; first compound 0.5 µM
  relative viability: 0.176
HOP-62; first compound 0.005 µM
  relative viability: 0.766
HOP-62; first compound 0.01581 µM
  relative viability: 0.49
HOP-62; first compound 0.05 µM
  relative viability: 0.379
HOP-62; first compound 0.1581 µM
  relative viability: 0.0643
HOP-62; first compound 0.5 µM
  relative viability: 0.0736
A-427; first compound 0.005 µM
  relative viability: 0.605
A-427; first compound 0.01581 µM
  relative viability: 0.414
A-427; first compound 0.05 µM
  relative viability: 0.149
A-427; first compound 0.1581 µM
  relative viability: 0.172
A-427; first compound 0.5 µM
  relative viability: 0.173
PC-3 [JPC-3]; first compound 0.005 µM
  relative viability: 0.781
PC-3 [JPC-3]; first compound 0.01581 µM
  relative viability: 0.837
PC-3 [JPC-3]; first compound 0.05 µM
  relative viability: 0.78
PC-3 [JPC-3]; first compound 0.1581 µM
  relative viability: 0.712
PC-3 [JPC-3]; first compound 0.5 µM
  relative viability: 0.617
SK-MES-1; first compound 0.005 µM
  relative viability: 0.706
SK-MES-1; first compound 0.01581 µM
  relative viability: 0.741
SK-MES-1; first compound 0.05 µM
  relative viability: 0.367
SK-MES-1; first compound 0.1581 µM
  relative viability: 0.274
SK-MES-1; first compound 0.5 µM
  relative viability: 0.219
NCI-H3122; first compound 0.005 µM
  relative viability: 0.264
NCI-H3122; first compound 0.01581 µM
  relative viability: 0.239
NCI-H3122; first compound 0.05 µM
  relative viability: 0.244
NCI-H3122; first compound 0.1581 µM
  relative viability: 0.192
NCI-H3122; first compound 0.5 µM
  relative viability: 0.204
NCI-H596; first compound 0.005 µM
  relative viability: 0.889
NCI-H596; first compound 0.01581 µM
  relative viability: 0.961
NCI-H596; first compound 0.05 µM
  relative viability: 0.786
NCI-H596; first compound 0.1581 µM
  relative viability: 0.614
NCI-H596; first compound 0.5 µM
  relative viability: 0.743
NCI-H1993; first compound 0.005 µM
  relative viability: 0.92
NCI-H1993; first compound 0.01581 µM
  relative viability: 0.785
NCI-H1993; first compound 0.05 µM
  relative viability: 0.845
NCI-H1993; first compound 0.1581 µM
  relative viability: 0.614
NCI-H1993; first compound 0.5 µM
  relative viability: 0.566
NCI-H2009; first compound 0.005 µM
  relative viability: 1.02
NCI-H2009; first compound 0.01581 µM
  relative viability: 1.01
NCI-H2009; first compound 0.05 µM
  relative viability: 0.955
NCI-H2009; first compound 0.1581 µM
  relative viability: 0.884
NCI-H2009; first compound 0.5 µM
  relative viability: 0.298
NCI-H2170; first compound 0.01581 µM
  relative viability: 0.925
NCI-H2170; first compound 0.05 µM
  relative viability: 0.912
NCI-H2170; first compound 0.1581 µM
  relative viability: 0.605
NCI-H2170; first compound 0.5 µM
  relative viability: 0.483
NCI-H322M; first compound 0.005 µM
  relative viability: 0.858
NCI-H322M; first compound 0.01581 µM
  relative viability: 0.676
NCI-H322M; first compound 0.05 µM
  relative viability: 0.534
NCI-H322M; first compound 0.1581 µM
  relative viability: 0.366
NCI-H322M; first compound 0.5 µM
  relative viability: 0.318
LXF-289; first compound 0.005 µM
  relative viability: 0.745
LXF-289; first compound 0.01581 µM
  relative viability: 0.78
LXF-289; first compound 0.05 µM
  relative viability: 0.663
LXF-289; first compound 0.1581 µM
  relative viability: 0.339
LXF-289; first compound 0.5 µM
  relative viability: 0.389
ABC-1; first compound 0.005 µM
  relative viability: 0.871
ABC-1; first compound 0.01581 µM
  relative viability: 0.821
ABC-1; first compound 0.05 µM
  relative viability: 0.925
ABC-1; first compound 0.1581 µM
  relative viability: 0.717
ABC-1; first compound 0.5 µM
  relative viability: 0.462
LK-2; first compound 0.005 µM
  relative viability: 0.262
LK-2; first compound 0.01581 µM
  relative viability: 0.305
LK-2; first compound 0.05 µM
  relative viability: 0.208
LK-2; first compound 0.1581 µM
  relative viability: 0.196
LK-2; first compound 0.5 µM
  relative viability: 0.205
HARA; first compound 0.005 µM
  relative viability: 1.01
HARA; first compound 0.01581 µM
  relative viability: 0.682
HARA; first compound 0.05 µM
  relative viability: 0.333
HARA; first compound 0.1581 µM
  relative viability: 0.223
HARA; first compound 0.5 µM
  relative viability: 0.169
NCI-H2228; first compound 0.005 µM
  relative viability: 0.373
NCI-H2228; first compound 0.01581 µM
  relative viability: 0.31
NCI-H2228; first compound 0.05 µM
  relative viability: 0.218
NCI-H2228; first compound 0.1581 µM
  relative viability: 0.124
NCI-H2228; first compound 0.5 µM
  relative viability: 0.151
NCI-H1792; first compound 0.005 µM
  relative viability: 0.624
NCI-H1792; first compound 0.01581 µM
  relative viability: 0.882
NCI-H1792; first compound 0.05 µM
  relative viability: 0.861
NCI-H1792; first compound 0.1581 µM
  relative viability: 0.53
NCI-H1792; first compound 0.5 µM
  relative viability: 0.465
EMC-BAC-2; first compound 0.005 µM
  relative viability: 0.592
EMC-BAC-2; first compound 0.01581 µM
  relative viability: 0.574
EMC-BAC-2; first compound 0.05 µM
  relative viability: 0.472
EMC-BAC-2; first compound 0.1581 µM
  relative viability: 0.242
EMC-BAC-2; first compound 0.5 µM
  relative viability: 0.185
SW 1573; first compound 0.005 µM
  relative viability: 0.83
SW 1573; first compound 0.01581 µM
  relative viability: 0.868
SW 1573; first compound 0.05 µM
  relative viability: 0.864
SW 1573; first compound 0.1581 µM
  relative viability: 0.412
SW 1573; first compound 0.5 µM
  relative viability: 0.179
NCI-H727; first compound 0.005 µM
  relative viability: 0.724
NCI-H727; first compound 0.01581 µM
  relative viability: 0.579
NCI-H727; first compound 0.05 µM
  relative viability: 0.636
NCI-H727; first compound 0.1581 µM
  relative viability: 0.359
NCI-H727; first compound 0.5 µM
  relative viability: 0.3
